Among the data in patent US20240002397A1, “3-AMINO PYRROLIDINE AND PIPERIDINE MACROCYCLIC OREXIN RECEPTOR AGONISTS” (Merck Sharp & Dohme LLC, priority 2020, published 2024) are Emax values, retold here.

The target of the assay is T1, human OX2R (Homo sapiens, UniProt O43614).
T1 sequence (O43614 1-444): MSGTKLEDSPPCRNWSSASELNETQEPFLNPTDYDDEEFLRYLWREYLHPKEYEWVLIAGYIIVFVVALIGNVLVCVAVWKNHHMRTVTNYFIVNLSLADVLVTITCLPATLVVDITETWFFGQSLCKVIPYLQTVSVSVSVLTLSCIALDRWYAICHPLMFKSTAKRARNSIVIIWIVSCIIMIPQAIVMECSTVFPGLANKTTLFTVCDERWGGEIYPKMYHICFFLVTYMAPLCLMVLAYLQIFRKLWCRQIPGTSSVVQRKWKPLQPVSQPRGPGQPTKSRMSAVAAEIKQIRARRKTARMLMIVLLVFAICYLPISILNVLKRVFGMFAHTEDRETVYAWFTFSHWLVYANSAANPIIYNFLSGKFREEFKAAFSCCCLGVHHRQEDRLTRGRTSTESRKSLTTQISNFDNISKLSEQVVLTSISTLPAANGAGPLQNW
The assay is described as follows: IPOne (IP-1) orexin receptor agonist assay in CHO cells expressing human OX2R. As to conditions: CHO, hOX2R IP-One; percentage of mean max effect of a reference compound at 1 uM with 100% activity.
Procedure: In atypical experiment, the OX1 and OX2 receptor agonist activity is determined in accordance with the following general experimental method. Chinese hamster ovary (CHO) cells expressing human OX1R and/or the human OX2R were grown in Iscove's modified DMEM containing glutaMAX™, 1% G418, 100 U/mL penicillin, 100 μg/mL streptomycin and 10% heat-inactivated qualified fetal bovine serum (FBS). […] During this incubation, IP-one detection reagents were prepared (38:1:1 lysis buffer:D2:AB-cryptate reagents).
For each compound, data were fit to a four parameter logistic fit (ActivityBase software) and the EC50 was reported as the inflection point of the resulting curve.
A word on the Emax: it is the maximal effect, on the per cent scale that the assay sets. As for `C[C@@H]1C[C@H](NS(C)(=O)=O)C2COC3CCC(CC3)c3nc(ccc3C(F)(F)F)OCCCOC(=O)N21` (stereo partly shown) [Example 69, N-((2^1S,2^4S,5^2R,5^3S,5^5R)-5^5-methyl-6-oxo-1^3-(trifluoromethyl)-3,7,11-trioxa-1(2,6)-pyridina-5(2,1)-pyrrolidina-2(1,4)-cyclohexanacycloundecaphane-5^3-yl)methanesulfonamide], the maximum response (Emax) came out at 94.7%.

Molecule `COc1cc2nc(c1)C1CCC(CC1)OCC1[C@@H](NS(C)(=O)=O)C[C@@H](C)N1C(=O)OCCO2` (stereo partly shown) [Example 70, N-((2^1S,2^4S,5^2R,5^3S,5^5R)-1^4-methoxy-5^5-methyl-6-oxo-3,7,10-trioxa-1(2,6)-pyridina-5(2,1)-pyrrolidina-2(1,4)-cyclohexanacyclodecaphane-5^3-yl)methanesulfonamide] gave a maximal effect (Emax) of 102%.

With `COc1cc2nc(c1)C1CCC(CC1)OCC1[C@@H](NS(C)(=O)=O)C[C@@H](C)N1C(=O)OCCCO2` (stereo partly shown) [Example 71, N-((2^1S,2^4S,5^2R,5^3S,5^5R)-1^4-methoxy-5^5-methyl-6-oxo-3,7,11-trioxa-1(2,6)-pyridina-5(2,1)-pyrrolidina-2(1,4)-cyclohexanacycloundecaphane-5^3-yl)methanesulfonamide], the maximum response (Emax) was 102%.

`C[C@@H]1C[C@H](NS(C)(=O)=O)C2COC3CCC(CC3)c3ccc(OC(F)(F)F)c(n3)OCCOC(=O)N21` (stereo partly shown) [Example 72, N-((2^1S,2^4S,5^2R,5^3S,5^5R)-5^5-methyl-6-oxo-1^5-(trifluoromethoxy)-3,7,10-trioxa-1(2,6)-pyridina-5(2,1)-pyrrolidina-2(1,4)-cyclohexanacyclodecaphane-5^3-yl)methanesulfonamid] came in with an Emax of 102%.

`C[C@@H]1C[C@H](NS(C)(=O)=O)C2COC3CCC(CC3)c3ccc(OC(F)(F)F)c(n3)OCCCOC(=O)N21` (stereo partly shown) [Example 73, N-((2^1S,2^4S,5^2R,5^3S,5^5R)-5^5-methyl-6-oxo-1^5-(trifluoromethoxy)-3,7,11-trioxa-1(2,6)-pyridina-5(2,1)-pyrrolidina-2(1,4)-cyclohexanacycloundecaphane-5^3-yl)methanesulfonamide] came in with a maximal effect (Emax) of 100%.

Take `COc1cc2nc(c1F)OCCCOC(=O)N1C(COC3CCC2CC3)[C@@H](NS(C)(=O)=O)C[C@H]1C` (stereo partly shown) [Example 75, N-((2^1S,2^4S,5^2R,5^3S,5^5R)-1^4-fluoro-1^3-methoxy-5^5-methyl-6-oxo-3,7,11-trioxa-1(2,6)-pyridina-5(2,1)-pyrrolidina-2(1,4)-cyclohexanacycloundecaphane-5^3-yl)methane sulfonamide]: the Emax came to 97.2%.

In turn, `COc1ccc2nc1OCCCOC(=O)N1C(COC3CCC2CC3)[C@@H](NS(C)(=O)=O)C[C@H]1C` (stereo partly shown) [Example 76, N-((2^1S,2^4S,5^2R,5^3S,5^5R)-1^5-methoxy-5^5-methyl-6-oxo-3,7,11-trioxa-1(2,6)-pyridina-5(2,1)-pyrrolidina-2(1,4)-cyclohexanacycloundecaphane-5^3-yl)methanesulfonamide] returned an Emax of 101%.

In turn, `CCOc1cc2nc(c1)C1CCC(CC1)OCC1[C@@H](NS(C)(=O)=O)C[C@@H](C)N1C(=O)OCCO2` (stereo partly shown) [Example 77, N-((2^1S,2^4S,5^2R,5^3S,5^5R)-1^4-ethoxy-5^5-methyl-6-oxo-3,7,10-trioxa-1(2,6)-pyridina-5(2,1)-pyrrolidina-2(1,4)-cyclohexanacyclodecaphane-5^3-yl)methanesulfonamide] displayed a maximal effect (Emax) of 99.5%.

As to `CCOc1cc2nc(c1)C1CCC(CC1)OCC1[C@@H](NS(C)(=O)=O)C[C@@H](C)N1C(=O)OCCCO2` (stereo partly shown) [Example 78, N-((2^1S,2^4S,5^2R,5^3S,5^5R)-1^4-ethoxy-5^5-methyl-6-oxo-3,7,11-trioxa-1(2,6)-pyridina-5(2,1)-pyrrolidina-2(1,4)-cyclohexanacycloundecaphane-5^3-yl)methanesulfonamide], the Emax was 100%.

Molecule `Cc1ccc2nc1C1CCC(CC1)OCC1[C@@H](NS(C)(=O)=O)C[C@@H](C)N1C(=O)OCCCO2` (stereo partly shown) [Example 80, N-((2^1S,2^4S,5^2R,5^3S,5^5R)-1^3,5^5-dimethyl-6-oxo-3,7,11-trioxa-1(2,6)-pyridina-5(2,1)-pyrrolidina-2(1,4)-cyclohexanacycloundecaphane-5^3-yl)methanesulfonamide] returned a maximal effect (Emax) of 99.4%.

In the case of `C[C@@H]1C[C@H](NS(C)(=O)=O)C2COC3CCC(CC3)c3nc(c(F)cc3F)OCCCOC(=O)N21` (stereo partly shown) [Example 81, N-((2^1S,2^4S,5^2R,5^3S,5^5R)-1^3,1^5-difluoro-5^5-methyl-6-oxo-3,7,11-trioxa-1(2,6)-pyridina-5(2,1)-pyrrolidina-2(1,4)-cyclohexanacycloundecaphane-5^3-yl)methanesulfonamide], the Emax turned out to be 104%.

Take `COC[C@@H]1C[C@H](NS(C)(=O)=O)C2COC3CCC(CC3)c3cc(C(F)(F)F)cc(n3)OCCCOC(=O)N21` (stereo partly shown) [Example 83, N-((2^1S,2^4S,5^2R,5^3S,5^5S)-5^5-(methoxymethyl)-6-oxo-1^4-(trifluoromethyl)-3,7,11-trioxa-1(2,6)-pyridina-5(2,1)-pyrrolidina-2(1,4)-cyclohexanacycloundecaphane-5^3-yl)methanesulfonamide]: the Emax stood at 102%.

The molecule `COC[C@@H]1C[C@H](NS(C)(=O)=O)C2COC3CCC(CC3)c3cc(C(F)(F)F)cc(n3)OCCOC(=O)N21` (stereo partly shown) [Example 84, N-((2^1S,2^4S,5^2R,5^3S,5^5S)-5^5-(methoxymethyl)-6-oxo-1^4-(trifluoromethyl)-3,7,10-trioxa-1(2,6)-pyridina-5(2,1)-pyrrolidina-2(1,4)-cyclohexanacyclodecaphane-5^3-yl)methanesulfonamide] displayed an Emax of 101%.

`COC[C@@H]1C[C@H](NS(C)(=O)=O)C2COC3CCC(CC3)c3cc(C(F)F)cc(n3)OCCCOC(=O)N21` (stereo partly shown) [Example 85, N-((2^1S,2^4S,5^2R,5^3S,5^5S)-14-(difluoromethyl)-5^5-(methoxymethyl)-6-oxo-3,7,11-trioxa-1(2,6)-pyridina-5(2,1)-pyrrolidina-2(1,4)-cyclohexanacycloundecaphane-5^3-yl)methanesulfonamide] registered an Emax of 102%.

`C[C@@H]1C[C@H](NS(C)(=O)=O)C2COC3CCC(CC3)c3cc(C(F)F)cc(n3)OCCCOC(=O)N21` (stereo partly shown) [Example 86, N-((2^1S,2^4S,5^2R,5^3S,5^5R)-1^4-(difluoromethyl)-5^5-methyl-6-oxo-3,7,11-trioxa-1(2,6)-pyridina-5(2,1)-pyrrolidina-2(1,4)-cyclohexanacycloundecaphane-5^3-yl)methanesulfonamide] yielded a maximum response (Emax) of 101%.

Turning to `COC[C@@H]1C[C@H](NS(C)(=O)=O)C2COC3CCC(CC3)c3nc(ccc3C(F)(F)F)OCCOC(=O)N21` (stereo partly shown) [Example 87, N-((2^1S,2^4S,5^2R,5^3S,5^5S)-5^5-(methoxymethyl)-6-oxo-1^3-(trifluoromethyl)-3,7,10-trioxa-1(2,6)-pyridina-5(2,1)-pyrrolidina-2(1,4)-cyclohexanacyclodecaphane-5^3-yl)methanesulfonamide], the maximum response (Emax) was found to be 100%.

Molecule `COc1cc2nc(c1)[C@H]1CC[C@H](CC1)OC[C@H]1[C@@H](NS(C)(=O)=O)C[C@@H](C)N1C(=O)OCCCN2` [Example 88, N-((2^1S,2^4S,5^2R,5^3S,5^5R)-1^4-methoxy-5^5-methyl-6-oxo-3,7-dioxa-11-aza-1(2,6)-pyridina-5(2,1)-pyrrolidina-2(1,4)-cyclohexanacycloundecaphane-5^3-yl)methanesulfonamide] showed a maximal effect (Emax) of 103%.

Turning to `C[C@@H]1C[C@H](NS(C)(=O)=O)C2COC3CCC(CC3)c3cc(C(F)(F)F)cc(n3)N(C)CCCOC(=O)N21` (stereo partly shown) [Example 89, N-((2^1S,2^4S,5^2R,5^3S,5^5R)-5^5,1^1-dimethyl-6-oxo-1^4-(trifluoromethyl)-3,7-dioxa-11-aza-1(2,6)-pyridina-5(2,1)-pyrrolidina-2(1,4)-cyclohexanacycloundecaphane-5^3-yl)methanesulfonamide], the Emax is 101%.

`C[C@@H]1C[C@H](NS(C)(=O)=O)C2COC3CCC(CC3)c3cccc(n3)NCCCOC(=O)N21` (stereo partly shown) [Example 90, N-((2^1S,2^4S,5^2R,5^3S,5^5R)-5^5-methyl-6-oxo-3,7-dioxa-11-aza-1(2,6)-pyridina-5(2,1)-pyrrolidina-2(1,4)-cyclohexanacycloundecaphane-5^3-yl)methanesulfonamide] registered an Emax of 101%.

As for `C[C@@H]1C[C@H](NS(C)(=O)=O)C2COC3CCC(CC3)c3cccc(n3)N(C)CCCOC(=O)N21` (stereo partly shown) [Example 91, N-((2^1S,2^4S,5^2R, 5^3S,5^5R)-5^5,^11-dimethyl-6-oxo-3,7-dioxa-11-aza-1(2,6)-pyridina-5(2,1)-pyrrolidina-2(1,4)-cyclohexanacycloundecaphane-5^3-yl)methanesulfonamide], the maximal effect (Emax) is 102%.

`C[C@@H]1C[C@H](NS(C)(=O)=O)C2COC3CCC(CC3)c3ccc(F)c(n3)NCCOC(=O)N21` (stereo partly shown) [Example 92, N-((2^1S,2^4S,5^2R,5^3S,5^5R)-1^5-fluoro-5^5-methyl-6-oxo-3,7-dioxa-10-aza-1(2,6)-pyridina-5(2,1)-pyrrolidina-2(1,4)-cyclohexanacyclodecaphane-5^3-yl)methanesulfonamide] had an Emax of 98.9%.

`C[C@@H]1C[C@H](NS(C)(=O)=O)C2COC3CCC(CC3)c3ccc(F)c(n3)NCCCOC(=O)N21` (stereo partly shown) [Example 93, N-((2^1S,2^4S,5^2R,5^3S,5^5R)-1^5-fluoro-5^5-methyl-6-oxo-3,7-dioxa-11-aza-1(2,6)-pyridina-5(2,1)-pyrrolidina-2(1,4)-cyclohexanacycloundecaphane-5^3-yl)methanesulfonamide] registered an Emax of 103%.
